From ChEMBL document CHEMBL6071123, “Design, synthesis and biological evaluation of 5-amino-1H-pyrazole-4-carboxamide derivatives as pan-FGFR covalent inhibitors” (Eur J Med Chem, 2024)
Blank lines part the entries; values can stand above or below the compound they belong to. Calls of active or inactive are those of the source. The rule behind the calls is not given here.

Assays:
[1] = target: Fibroblast growth factor receptor 1 (Homo sapiens, UniProt P11362); assay: biochemical; type: cell-based
Sequence of Fibroblast growth factor receptor 1 (P11362 whole entry): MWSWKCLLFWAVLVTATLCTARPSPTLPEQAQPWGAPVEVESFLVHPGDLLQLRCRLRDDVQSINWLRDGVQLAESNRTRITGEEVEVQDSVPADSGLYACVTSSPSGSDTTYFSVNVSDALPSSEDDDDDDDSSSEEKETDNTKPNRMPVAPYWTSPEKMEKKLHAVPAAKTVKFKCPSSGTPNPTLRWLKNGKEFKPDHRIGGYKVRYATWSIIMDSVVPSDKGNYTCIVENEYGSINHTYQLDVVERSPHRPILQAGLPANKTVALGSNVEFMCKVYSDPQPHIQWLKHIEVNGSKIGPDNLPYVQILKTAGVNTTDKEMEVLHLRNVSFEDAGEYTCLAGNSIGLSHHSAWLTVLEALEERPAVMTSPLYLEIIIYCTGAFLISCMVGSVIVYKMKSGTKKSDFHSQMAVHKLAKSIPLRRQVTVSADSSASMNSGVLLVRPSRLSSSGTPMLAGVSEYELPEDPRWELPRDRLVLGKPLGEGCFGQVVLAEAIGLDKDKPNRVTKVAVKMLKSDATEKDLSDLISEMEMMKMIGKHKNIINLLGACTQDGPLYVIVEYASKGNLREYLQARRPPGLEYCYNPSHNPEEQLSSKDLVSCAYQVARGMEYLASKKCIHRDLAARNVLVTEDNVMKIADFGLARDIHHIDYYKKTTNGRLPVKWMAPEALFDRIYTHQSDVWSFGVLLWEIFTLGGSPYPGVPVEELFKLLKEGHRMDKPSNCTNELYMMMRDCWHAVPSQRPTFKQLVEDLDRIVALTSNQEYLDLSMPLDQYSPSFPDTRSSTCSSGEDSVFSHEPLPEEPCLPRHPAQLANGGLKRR
Description: Inhibition of N-terminal 6-his tagged human wild type FGFR1 (458 to 765 residues) expressed in Escherichia coli BL21 cells using Tyr 04 peptide as substrate incubated for 1 hr by FRET based Z-lyte assay

[2] = Induction of apoptosis in human KATO III stomach cancer cell line assessed as viable cells at 100 nM incubated for 48 hrs by annexin V-FITC/PI staining based flow cytometry analysis (reference value: 90.1%); type: functional; conditions: read-out: Activity
[3] = Induction of apoptosis in human KATO III stomach cancer cell line assessed as viable cells at 10 nM incubated for 48 hrs by annexin V-FITC/PI staining based flow cytometry analysis (reference value: 90.1%); type: functional; conditions: read-out: Activity
[4] = Induction of apoptosis in human KATO III stomach cancer cell line assessed as early apoptotic cells at 10 nM incubated for 48 hrs by annexin V-FITC/PI staining based flow cytometry analysis (reference value: 3.40%); type: functional
[5] = Antiproliferative activity against human KATO III stomach cancer cell line measured after 3 days by CCK-8 method; type: functional, cell-based; conditions: 72 h
[6] = Induction of apoptosis in human KATO III stomach cancer cell line assessed as early apoptotic cells at 100 nM incubated for 48 hrs by annexin V-FITC/PI staining based flow cytometry analysis (reference value: 3.40%); type: functional
[7] = Induction of apoptosis in human KATO III stomach cancer cell line assessed as necrotic cells at 100 nM incubated for 48 hrs by annexin V-FITC/PI staining based flow cytometry analysis (reference value: 0.072%); type: functional
[8] = Induction of apoptosis in human KATO III stomach cancer cell line assessed as viable cells at 1000 nM incubated for 48 hrs by annexin V-FITC/PI staining based flow cytometry analysis (reference value: 90.1%); type: functional; conditions: read-out: Activity
BaF3 [9] = assay: Effect on FGFR2 protein level in mouse BaF3 cells harbouring FGFR2 V564F mutant at 0 to 1000 nM measured after 6 hrs by Western blot analysis; type: functional, cell-based; conditions: dose 0-1000 nM
[10] = Metabolic stability in human liver microsomes assessed as hepatic clearance at 1 uM measured upto 45 mins in presence of NADPH by HPLC-MS/MS analysis; type: ADME, Microsome
BaF3 [11] = assay: Inhibition of AKT phosphorylation in mouse BaF3 cells harbouring FGFR2 V564F mutant measured after 6 hrs by Western blot analysis; type: cell-based; conditions: dose 0-1000 nM
[12] = Induction of cell cycle arrest in human KATO III stomach cancer cell line assessed as accumulation of cells at G2 phase at 1000 nM measured after 24 hrs by PI staining based flow cytometry analysis (reference value: 42.5%); type: functional
[13] = Induction of apoptosis in human KATO III stomach cancer cell line assessed as early apoptotic cells at 1000 nM incubated for 48 hrs by annexin V-FITC/PI staining based flow cytometry analysis (reference value: 3.40%); type: functional
[14] = Induction of cell cycle arrest in human KATO III stomach cancer cell line assessed as accumulation of cells at G1 phase at 100 nM measured after 24 hrs by PI staining based flow cytometry analysis (reference value: 29.8%); type: functional
[15] = Induction of cell cycle arrest in human KATO III stomach cancer cell line assessed as accumulation of cells at S phase at 100 nM measured after 24 hrs by PI staining based flow cytometry analysis (reference value: 28.3%); type: functional
[16] = target: Fibroblast growth factor receptor 2 (Homo sapiens, UniProt P21802, V564F); assay: Inhibition of FGFR2 V564F mutant (unknown origin) using (Poly (4:1 Glu, Tyr) peptide as substrate by ADP-Glo kinase assay
Sequence of Fibroblast growth factor receptor 2 (Homo sapiens, UniProt P21802, V564F) (P21802 22-821 V564F limits assumed): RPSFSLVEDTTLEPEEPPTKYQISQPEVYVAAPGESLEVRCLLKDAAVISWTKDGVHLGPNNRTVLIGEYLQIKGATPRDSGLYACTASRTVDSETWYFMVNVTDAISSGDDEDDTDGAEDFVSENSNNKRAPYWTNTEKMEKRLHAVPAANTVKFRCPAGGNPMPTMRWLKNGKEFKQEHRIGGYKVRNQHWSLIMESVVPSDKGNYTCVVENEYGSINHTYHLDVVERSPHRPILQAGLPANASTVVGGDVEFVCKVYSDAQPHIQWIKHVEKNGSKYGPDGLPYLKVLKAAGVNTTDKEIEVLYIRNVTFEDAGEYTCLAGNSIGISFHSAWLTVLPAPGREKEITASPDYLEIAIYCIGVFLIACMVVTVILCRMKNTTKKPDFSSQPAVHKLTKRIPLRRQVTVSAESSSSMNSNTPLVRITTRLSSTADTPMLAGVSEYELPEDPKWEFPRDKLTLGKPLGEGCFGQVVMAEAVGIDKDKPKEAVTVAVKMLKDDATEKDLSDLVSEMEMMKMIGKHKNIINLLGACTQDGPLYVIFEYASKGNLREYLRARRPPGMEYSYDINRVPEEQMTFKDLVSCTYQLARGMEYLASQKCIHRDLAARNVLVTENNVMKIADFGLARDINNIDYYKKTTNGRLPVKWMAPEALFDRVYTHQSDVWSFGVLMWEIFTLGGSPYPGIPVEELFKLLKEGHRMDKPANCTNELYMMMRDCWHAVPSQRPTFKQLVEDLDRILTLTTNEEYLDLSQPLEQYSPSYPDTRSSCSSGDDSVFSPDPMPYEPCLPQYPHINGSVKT

[17] = target: T1, Fibroblast growth factor receptor 2 (Homo sapiens, UniProt P21802); assay: biochemical; type: cell-based
Target sequence in this assay (P21802 whole entry): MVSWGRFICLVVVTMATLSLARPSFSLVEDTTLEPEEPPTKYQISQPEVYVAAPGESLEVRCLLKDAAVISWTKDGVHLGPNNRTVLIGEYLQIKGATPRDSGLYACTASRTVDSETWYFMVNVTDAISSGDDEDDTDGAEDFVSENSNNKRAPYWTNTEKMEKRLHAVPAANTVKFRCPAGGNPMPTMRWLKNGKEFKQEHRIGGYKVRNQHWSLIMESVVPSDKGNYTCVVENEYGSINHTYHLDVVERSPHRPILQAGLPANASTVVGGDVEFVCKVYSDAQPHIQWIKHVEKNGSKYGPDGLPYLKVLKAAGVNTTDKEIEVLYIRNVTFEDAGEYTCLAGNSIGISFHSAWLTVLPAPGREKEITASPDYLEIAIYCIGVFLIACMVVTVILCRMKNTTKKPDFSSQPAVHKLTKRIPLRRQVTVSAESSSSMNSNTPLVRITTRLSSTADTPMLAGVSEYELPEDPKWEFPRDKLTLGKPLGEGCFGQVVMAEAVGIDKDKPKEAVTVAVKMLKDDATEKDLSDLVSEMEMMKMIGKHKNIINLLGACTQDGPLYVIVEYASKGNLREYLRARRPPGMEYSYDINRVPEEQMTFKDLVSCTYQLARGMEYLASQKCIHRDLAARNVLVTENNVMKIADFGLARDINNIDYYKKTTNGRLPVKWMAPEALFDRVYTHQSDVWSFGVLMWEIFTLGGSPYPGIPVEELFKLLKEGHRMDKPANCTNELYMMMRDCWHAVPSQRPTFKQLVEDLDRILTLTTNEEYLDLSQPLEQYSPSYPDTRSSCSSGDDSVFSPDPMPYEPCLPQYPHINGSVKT
Description: Inhibition of N-terminal 6-his tagged human wild type FGFR2 (458 to 768 residues) expressed in Escherichia coli BL21 cells using Tyr 04 peptide as substrate incubated for 1 hr by FRET based Z-lyte assay

[18] = Induction of apoptosis in human KATO III stomach cancer cell line assessed as late apoptotic cells at 1000 nM incubated for 48 hrs by annexin V-FITC/PI staining based flow cytometry analysis (reference value: 6.39%); type: functional
[19] = target: Fibroblast growth factor receptor 2 (Mus musculus) (UniProt P21803); assay: Inhibition of FGFR2 phosphorylation in mouse BaF3 cells harbouring FGFR2 V564F mutant measured after 6 hrs by Western blot analysis; type: cell-based; conditions: dose 0-1000 nM
Sequence of Fibroblast growth factor receptor 2 (Mus musculus) (P21803 whole entry): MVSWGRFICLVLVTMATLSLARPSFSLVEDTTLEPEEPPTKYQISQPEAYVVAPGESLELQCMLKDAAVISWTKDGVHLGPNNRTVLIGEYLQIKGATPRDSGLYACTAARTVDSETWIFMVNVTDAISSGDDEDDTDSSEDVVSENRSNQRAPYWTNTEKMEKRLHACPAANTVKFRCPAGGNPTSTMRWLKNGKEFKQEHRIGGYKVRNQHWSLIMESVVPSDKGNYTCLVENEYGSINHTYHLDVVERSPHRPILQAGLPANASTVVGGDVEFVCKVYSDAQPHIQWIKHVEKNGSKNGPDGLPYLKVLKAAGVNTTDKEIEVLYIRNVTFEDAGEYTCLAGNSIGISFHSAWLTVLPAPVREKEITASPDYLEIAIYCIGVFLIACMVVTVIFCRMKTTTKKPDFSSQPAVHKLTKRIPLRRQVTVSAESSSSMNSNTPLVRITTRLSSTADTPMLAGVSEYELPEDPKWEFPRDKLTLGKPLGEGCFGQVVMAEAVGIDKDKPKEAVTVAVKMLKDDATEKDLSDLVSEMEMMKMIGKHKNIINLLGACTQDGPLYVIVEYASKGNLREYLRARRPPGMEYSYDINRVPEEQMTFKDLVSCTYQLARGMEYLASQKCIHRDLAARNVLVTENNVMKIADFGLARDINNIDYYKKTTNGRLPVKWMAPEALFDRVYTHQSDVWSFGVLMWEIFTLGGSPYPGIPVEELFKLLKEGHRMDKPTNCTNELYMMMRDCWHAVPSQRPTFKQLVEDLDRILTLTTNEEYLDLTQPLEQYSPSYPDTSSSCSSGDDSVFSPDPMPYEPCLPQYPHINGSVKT

BaF3 [20] = assay: Effect on AKT protein level in mouse BaF3 cells harbouring FGFR2 V564F mutant at 0 to 1000 nM measured after 6 hrs by Western blot analysis; type: functional, cell-based; conditions: dose 0-1000 nM
[21] = Induction of apoptosis in human KATO III stomach cancer cell line assessed as necrotic cells at 10 nM incubated for 48 hrs by annexin V-FITC/PI staining based flow cytometry analysis (reference value: 0.072%); type: functional
NCI-H520 = assay: Antiproliferative activity against human NCI-H520 cells measured after 3 days by CCK-8 method; type: functional, cell-based; conditions: NCI-H520, 72 h
SNU-16 [22] = assay: Antiproliferative activity against human SNU-16 cells measured after 3 days by CCK-8 method; type: functional, cell-based; conditions: SNU-16, 72 h
[23] = Induction of cell cycle arrest in human KATO III stomach cancer cell line assessed as accumulation of cells at G1 phase at 1000 nM measured after 24 hrs by PI staining based flow cytometry analysis (reference value: 29.8%); type: functional
BaF3 [24] = assay: Antiproliferative activity against mouse BaF3 cells harbouring FGFR2 V564F mutant assessed as reduction in cell viability incubated for 72 hrs by CCK-8 method; type: functional, cell-based; conditions: BaF3, 72 h
[25] = Induction of apoptosis in human KATO III stomach cancer cell line assessed as late apoptotic cells at 100 nM incubated for 48 hrs by annexin V-FITC/PI staining based flow cytometry analysis (reference value: 6.39%); type: functional
[26] = Induction of cell cycle arrest in human KATO III stomach cancer cell line assessed as accumulation of cells at G1 phase at 10 nM measured after 24 hrs by PI staining based flow cytometry analysis (reference value: 29.8%); type: functional
[27] = Induction of apoptosis in human KATO III stomach cancer cell line assessed as necrotic cells at 1000 nM incubated for 48 hrs by annexin V-FITC/PI staining based flow cytometry analysis (reference value: 0.072%); type: functional
SNU-16 [28] = assay: Inhibition of AKT phosphorylation in human SNU-16 measured after 2 hrs by Western blot analysis; type: cell-based; conditions: dose 0-300 nM
[29] = Metabolic stability in human liver microsomes assessed as half life at 1 uM measured upto 45 mins in presence of NADPH by HPLC-MS/MS analysis; type: ADME, Microsome
[30] = target: Fibroblast growth factor receptor 3 (Homo sapiens, UniProt P22607); assay: Inhibition of FGFR3 (unknown origin) using Tyr 04 peptide as substrate incubated for 1 hr by FRET based Z-lyte assay
Sequence of Fibroblast growth factor receptor 3 (P22607 whole entry): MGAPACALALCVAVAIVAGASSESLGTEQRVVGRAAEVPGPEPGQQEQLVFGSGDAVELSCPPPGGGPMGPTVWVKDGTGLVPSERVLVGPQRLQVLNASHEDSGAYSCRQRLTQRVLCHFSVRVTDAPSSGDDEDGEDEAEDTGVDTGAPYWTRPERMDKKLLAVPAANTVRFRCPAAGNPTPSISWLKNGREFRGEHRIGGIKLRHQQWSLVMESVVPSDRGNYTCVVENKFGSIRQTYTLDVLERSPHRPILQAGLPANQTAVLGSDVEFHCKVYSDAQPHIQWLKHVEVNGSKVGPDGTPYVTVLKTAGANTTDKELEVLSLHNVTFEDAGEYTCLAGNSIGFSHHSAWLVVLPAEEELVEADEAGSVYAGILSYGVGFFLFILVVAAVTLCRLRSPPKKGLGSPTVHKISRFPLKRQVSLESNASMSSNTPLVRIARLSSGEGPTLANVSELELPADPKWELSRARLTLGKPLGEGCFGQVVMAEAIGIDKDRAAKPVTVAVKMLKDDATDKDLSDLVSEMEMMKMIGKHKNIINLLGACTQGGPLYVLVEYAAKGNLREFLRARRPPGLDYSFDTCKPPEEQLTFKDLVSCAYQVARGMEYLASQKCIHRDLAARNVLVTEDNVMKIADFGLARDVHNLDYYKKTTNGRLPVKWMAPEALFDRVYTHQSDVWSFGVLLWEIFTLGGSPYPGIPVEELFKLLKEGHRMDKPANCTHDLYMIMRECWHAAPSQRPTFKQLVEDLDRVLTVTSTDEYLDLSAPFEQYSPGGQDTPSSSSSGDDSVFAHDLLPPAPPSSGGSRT

[31] = target: T1, Fibroblast growth factor receptor 2; assay: Inhibition of FGFR2 phosphorylation in human SNU-16 measured after 2 hrs by Western blot analysis; type: cell-based; conditions: dose 0-300 nM
Target sequence in this assay (P21802 22-821 limits assumed): as the sequence (P21802 22-821 V564F limits assumed) above, with F543V counted along it

[32] = Metabolic stability in human liver microsomes assessed as intrinsic clearance at 1 uM measured upto 45 mins in presence of NADPH by HPLC-MS/MS analysis; type: ADME, Microsome; conditions: read-out: CLH
[33] = Induction of apoptosis in human KATO III stomach cancer cell line assessed as late apoptotic cells at 10 nM incubated for 48 hrs by annexin V-FITC/PI staining based flow cytometry analysis (reference value: 6.39%); type: functional
[34] = Induction of cell cycle arrest in human KATO III stomach cancer cell line assessed as accumulation of cells at S phase at 10 nM measured after 24 hrs by PI staining based flow cytometry analysis (reference value: 28.3%); type: functional
KATO III = assay: Induction of cell cycle arrest in human KATO III stomach cancer cell line assessed as accumulation of cells at G1 phase measured after 24 hrs by PI staining based flow cytometry analysis; type: functional; conditions: dose 10-1000 nM
[35] = Metabolic stability in human liver microsomes assessed as hepatic extraction ratio at 1 uM measured upto 45 mins in presence of NADPH by HPLC-MS/MS analysis; type: ADME, Microsome; conditions: read-out: ERH

Structure (SMILES): C=CC(=O)Nc1ccc(Cn2nc(-c3ccc4[nH]c(C)nc4c3)c3c(N)ncnc32)cc1
IC50 [1]: 2000 nM

Structure (SMILES): C=CC(=O)Nc1cccc(Cn2nc(C#Cc3c(F)cc4[nH]c(C)nc4c3F)c(C(N)=O)c2N)c1
viability at 0.1 µM [2]: 82.4%
viability at 0.01 µM [3]: 86.7%
Activity [4]: 5.84%
IC50 [5]: 59 nM
Activity [6]: 8.85%
Activity [7]: 0.27%
viability at 1 µM [8]: 77.1%
Activity (BaF3 [9]): Active
CLhep predicted at 1 µM [10]: 12.9 mL/min/kg
inhibition (BaF3 [11]): Dose-Dependent Effect
Activity [12]: 35.7%
Activity [13]: 10.1%
Activity [14]: 59.4%
Activity [15]: 3.33%
IC50 [16]: 62 nM
IC50 [17]: 41 nM
Activity [18]: 12.7%
inhibition [19]: Dose-Dependent Effect
Activity (BaF3 [20]): Active
Activity [21]: 0.065%
IC50 (NCI-H520): 73 nM
IC50 (SNU-16 [22]): 19 nM
Activity [23]: 66.4%
IC50 (BaF3 [24]): 87 nM
Activity [25]: 8.53%
Activity [26]: 35.3%
Activity [27]: 0.085%
inhibition (SNU-16 [28]): Dose-Dependent Effect
half-life at 1 µM [29]: 46.4 min
IC50 [30]: 99 nM
inhibition [31]: Dose-Dependent Effect
CLint scaled at 1 µM [32]: 34.5 mL/min/kg
Activity [33]: 7.38%
Activity [34]: 25.5%
Activity (KATO III): Dose-Dependent Effect

Structure (SMILES): C=CC(=O)N1CC[C@H](n2nc(C#Cc3cc(OC)cc(OC)c3)c3c(N)ncnc32)C1 [FUTIBATINIB]
IC50 [5]: 4 nM
IC50 (NCI-H520): 14 nM
IC50 (SNU-16 [22]): 0.44 nM

Structure (SMILES): C=CC(=O)Nc1ccc(CCCn2nc(C#Cc3cc(OC)cc(OC)c3)c3c(N)ncnc32)cc1
IC50 [1]: 1590 nM

Structure (SMILES): C=CC(=O)Nc1ccc(Cn2nc(C#Cc3ccc4[nH]c(C)nc4c3)c3c(N)ncnc32)cc1
IC50 [1]: 680 nM

Structure (SMILES): C=CC(=O)Nc1ccc(Cn2nc(C#Cc3ccc4oc(C)nc4c3)c(C(N)=O)c2N)cc1
IC50 [1]: 610 nM

Structure (SMILES): C=CC(=O)Nc1ccc(CCCCn2nc(C#Cc3cc(OC)cc(OC)c3)c3c(N)ncnc32)cc1
IC50 [1]: 2340 nM

Structure (SMILES): C=CC(=O)Nc1ccc(Cn2nc(-c3cc4cc(C)cc(OC)c4s3)c3c(N)ncnc32)cc1
IC50 [1]: 23 nM

Structure (SMILES): C=CC(=O)Nc1ccc(Cn2nc(C#Cc3c(F)cc4[nH]c(C)nc4c3F)c(C(N)=O)c2N)cc1
IC50 [1]: 130 nM

Structure (SMILES): O=C(c1ccc(F)cc1)C1CCN(CCn2c(=O)[nH]c3ccccc3c2=O)CC1 [KETANSERIN]
CLhep predicted at 1 µM [10]: 13.2 mL/min/kg
hepatic extraction ratio at 0.75 h, 1 µM [35]: 0.639
half-life at 1 µM [29]: 43.7 min
CLint scaled at 1 µM [32]: 36.7 mL/min/kg

Structure (SMILES): C=CC(=O)Nc1ccc(Cn2nc(C#Cc3ccc4sc(C)nc4c3)c(C(N)=O)c2N)cc1
IC50 [1]: 950 nM

Structure (SMILES): C=CC(=O)Nc1ccccc1Cn1nc(C#Cc2ccc3[nH]c(C)nc3c2)c(C(N)=O)c1N
IC50 [1]: 880 nM

Results, then the compound that gave them:

IC50 [1]: > 10000 nM
Structure (SMILES): C=CC(=O)Nc1ccc(Cn2nc(-c3ccc(Oc4nccc(C)n4)c(F)c3)c3c(N)ncnc32)cc1

IC50 [1]: 660 nM
Structure (SMILES): C=CC(=O)Nc1ccc(Cn2nc(C#Cc3cc(OC)cc(OC)c3)c3c(N)ncnc32)cc1

IC50 [1]: > 10000 nM
Structure (SMILES): C=CC(=O)Nc1cccc(Cn2nc(C#Cc3c(F)cc4[nH]c(C)nc4c3F)c(C(N)=O)c2NCC)c1

IC50 [1]: 3460 nM
Structure (SMILES): C=CC(=O)Nc1ccc(CCn2nc(C#Cc3cc(OC)cc(OC)c3)c3c(N)ncnc32)cc1

IC50 [1]: 320 nM
Structure (SMILES): C=CC(=O)Nc1ccc(Cn2nc(C#Cc3ccc4[nH]c(C)nc4c3)c(C(N)=O)c2N)cc1

IC50 [1]: 2910 nM
Structure (SMILES): C=CC(=O)Nc1cccc(Cn2nc(C#Cc3c(F)cc4[nH]c(C)nc4c3F)c(C(N)=O)c2NCCOC)c1

IC50 [1]: > 10000 nM
Structure (SMILES): C=CC(=O)Nc1cccc(Cn2nc(C#Cc3c(F)cc4[nH]c(C)nc4c3F)c(C(N)=O)c2NC)c1

IC50 [1]: > 10000 nM
Structure (SMILES): C=CC(=O)Nc1ccc(Cn2nc(C#Cc3ccc(-c4c[nH]c(C)n4)cc3)c(C(N)=O)c2N)cc1

IC50 [1]: 4800 nM
Structure (SMILES): C=CC(=O)Nc1ccc(Cn2nc(-c3ccc(Oc4ccccc4)cc3)c3c(N)ncnc32)cc1
